Source: patent US20110172244A1 (IRM LLC, priority 2008, published 2011)

These compounds were tested against T1, human GPR119 (Homo sapiens, UniProt Q8TDV5) (assay: Cyclic AMP assay in stable cell line (Flp-In-CHO-hGPR119, HTRF)). Settings: Flp-In-CHO-hGPR119 cells, cAMP HTRF, 1 mM IBMX, 30 minutes at 37° C.; read-out: CHO-GPR119-HTRF (3158) EC50.
T1 construct: expressed in transfected cells
T1 sequence (Q8TDV5 1-335): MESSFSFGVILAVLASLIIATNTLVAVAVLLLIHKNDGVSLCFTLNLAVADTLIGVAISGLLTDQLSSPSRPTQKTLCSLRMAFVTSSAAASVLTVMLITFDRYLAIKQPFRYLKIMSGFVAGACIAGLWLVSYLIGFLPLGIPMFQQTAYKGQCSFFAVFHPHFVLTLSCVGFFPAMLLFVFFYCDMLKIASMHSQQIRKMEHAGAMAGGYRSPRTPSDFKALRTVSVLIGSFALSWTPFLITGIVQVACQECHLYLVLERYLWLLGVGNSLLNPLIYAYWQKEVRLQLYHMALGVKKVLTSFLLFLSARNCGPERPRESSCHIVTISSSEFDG
Format: cell-based
Description: Generation of Stable Cell Line
Flp-In-CHO cells (Invitrogen, Cat. #R758-07) are maintained in Ham's F12 medium supplemented with 10% fetal bovine serum, 1% antibiotic mixture and 2 mM L-glutamine. The cells are transfected with a DNA mixture containing human GPR119 in pcDNA5/FRT vector and the pOG44 vector (1:9) using Fugene6 (Roche), according to the manufacturer's instruction. After 48 hours, the medium is changed to medium supplemented with 400 μg/ml hygromycin B to initiate the selection of stably transfected cells.
Cyclic AMP Assay in Stable Cell Line
To test the activity of compounds of the invention, Flp-In-CHO-hGPR119 cells are harvested and resuspended in DMEM plus 3% lipid-depleted fetal bovine serum. Forth μl of cells are plated in 384 well plates at a density of 15,000 cells/well. IBMX (3-isobutyl-1-methyl-xanthine) is added to the cells to a final concentration of 1 mM, followed by the addition of 500 nl of the compound to be tested. The cells are incubated at 37° C. for 30 minutes. Equal volume (20 μl) of the HTRF reagents, anti-cAMP-Cryptate and cAMP-XL665, are added to the cells. The plates are incubated at room temperature for 1 hour and read on a HTRF reader according to the manufacturer's instruction.
`O=C(c1[nH]c2ccc(F)cc2c1S(=O)(=O)c1ccc(Cl)cc1)N1CCC(Cc2ccccc2)CC1` [Example A1, (4-benzylpiperidin-1-yl)(3-(4-chlorophenylsulfonyl)-5-fluoro-1H-indol-2-yl)methanone] gave an EC50 of 0.012 µM. `O=C(c1[nH]c2ccccc2c1S(=O)(=O)c1ccc(Cl)cc1)N1CCN(Cc2c(F)cccc2Cl)CC1` [Example A2, (4-(2-chloro-6-fluorobenzyl)piperazin-1-yl)(3-(4-chlorophenylsulfonyl)-1H-indol-2-yl)methanone] showed an EC50 of 0.007 µM. Work on `Cc1ccc(OC2CCN(C(=O)c3[nH]c4ccccc4c3S(=O)(=O)c3ccc(Cl)cc3)CC2)cc1` [Example A3, (3-(4-chlorophenylsulfonyl)-1H-indol-2-yl)(4-(p-tolyloxy)piperidin-1-yl)methanone] yielded an EC50 of 0.009 µM. Compound `O=C(c1[nH]c2ccccc2c1S(=O)(=O)c1ccc(Cl)cc1)N1CCC(Oc2ccc(C(F)(F)F)cc2)CC1` [Example A4, (3-(4-chlorophenylsulfonyl)-1H-indol-2-yl)(4-(4-(trifluoromethyl)phenoxy)piperidin-1-yl)methanone] has an EC50 of 0.01 µM. `O=C(c1[nH]c2ccccc2c1S(=O)(=O)c1ccc(Cl)cc1)N1CCN(Cc2ccc(Cl)cc2)CC1` [Example A5, (4-(4-chlorobenzyl)piperazin-1-yl)(3-(4-chlorophenylsulfonyl)-1H-indol-2-yl)methanone] was tested, and the EC50 was 0.017 µM. Compound `Cc1ccc(SC2CCN(C(=O)c3[nH]c4ccccc4c3S(=O)(=O)c3ccc(Cl)cc3)CC2)cc1` [Example A6, (3-(4-chlorophenylsulfonyl)-1H-indol-2-yl)(4-(p-tolylthio)piperidin-1-yl)methanone] has an EC50 of 0.018 µM. Work on `O=C(c1[nH]c2ccccc2c1S(=O)(=O)c1ccc(Cl)cc1)N1CCC(CCc2ccccc2)CC1` [Example A7, (3-(4-chlorophenylsulfonyl)-1H-indol-2-yl)(4-phenethylpiperidin-1-yl)methanone] yielded an EC50 of 0.018 µM. In the case of `O=C(c1[nH]c2ccccc2c1S(=O)(=O)c1ccc(Cl)cc1)N1CCN(CC2CCCCC2)CC1` [Example A11, (3-(4-chlorophenylsulfonyl)-1H-indol-2-yl)(4-(cyclohexylmethyl)piperazin-1-yl)methanone], the EC50 is reported as 0.032 µM. Compound `O=C(c1[nH]c2ccccc2c1S(=O)(=O)c1ccc(Cl)cc1)N1CCN(Cc2ccc3c(c2)OCO3)CC1` [Example A12, (4-(benzo[d][1,3]dioxol-5-ylmethyl)piperazin-1-yl)(3-(4-chlorophenylsulfonyl)-1H-indol-2-yl)methanone] has an EC50 of 0.04 µM. `CN(Cc1ccccc1)C1CCN(C(=O)c2[nH]c3ccccc3c2S(=O)(=O)c2ccc(Cl)cc2)CC1` [Example A19, (4-(benzyl(methyl)amino)piperidin-1-yl)(3-(4-chlorophenylsulfonyl)-1H-indol-2-yl)methanone] gave an EC50 of 0.533 µM. For `CN(CCOc1ccccc1)C(=O)c1[nH]c2ccccc2c1S(=O)(=O)c1ccc(Cl)cc1` [Example A20, 3-(4-chlorophenylsulfonyl)-N-methyl-N-(2-phenoxyethyl)-1H-indole-2-carboxamide], the EC50 was 0.192 µM. `O=C(c1[nH]c2ccccc2c1S(=O)(=O)c1ccc(Cl)cc1)N1CCN(Cc2ccncc2)CC1` [Example A22, (3-(4-chlorophenylsulfonyl)-1H-indol-2-yl)(4-(pyridin-4-ylmethyl)piperazin-1-yl)methanone] gave an EC50 of 0.435 µM. In the case of `O=C(NCCCCc1ccccc1)c1[nH]c2ccccc2c1S(=O)(=O)c1ccc(Cl)cc1` [Example A23, 3-(4-chlorophenylsulfonyl)-N-(4-phenylbutyl)-1H-indole-2-carboxamide], the EC50 is reported as 0.396 µM. With `O=C(c1[nH]c2ccccc2c1S(=O)(=O)c1ccc(Cl)cc1)N1CCCCC1` [Example A24, (3-(4-chlorophenylsulfonyl)-1H-indol-2-yl)(piperidin-1-yl)methanone] the EC50 was 0.574 µM. In the case of `O=C(c1oc2ccccc2c1S(=O)(=O)c1ccc(Cl)cc1)N1CCC(Oc2ccc(C(F)(F)F)cc2)CC1` [Example A29, (3-(4-Chlorophenylsulfonyl)benzofuran-2-yl)(4-(4-(trifluoromethyl)phenoxy)piperidin-1-yl)methanone], the EC50 is reported as 0.054 µM. With `O=C(c1oc2ccccc2c1S(=O)(=O)c1ccc(Cl)cc1)N1CCN(Cc2ccccc2)CC1` [Example A30, (4-benzylpiperazin-1-yl)(3-(4-chlorophenylsulfonyl)benzofuran-2-yl)methanone] the EC50 was 0.187 µM. With `O=C(c1[nH]c2c(F)cccc2c1S(=O)(=O)c1ccc(Cl)cc1)N1CCC(Cc2ccccc2)CC1` [Example B1, (4-benzylpiperidin-1-yl)(3-(4-chlorophenylsulfonyl)-7-fluoro-1H-indol-2-yl)methanone] the EC50 was 0.022 µM. With `O=C(c1[nH]c2ccccc2c1S(=O)(=O)Cc1ccccc1)N1CCC(Cc2ccccc2)CC1` [Example B2, (4-benzylpiperidin-1-yl)(3-benzylsulfonyl-1H-indol-2-yl)methanone] the EC50 was 0.21 µM. Work on `O=C(c1[nH]c2ccccc2c1SC1CCCCC1)N1CCC(Cc2ccccc2)CC1` [Example B3, (4-benzylpiperidin-1-yl)(3-(cyclohexylthio)-1H-indol-2-yl)methanone] yielded an EC50 of 0.755 µM. Compound `O=C(c1[nH]c2ccccc2c1S(=O)(=O)C1CCCCC1)N1CCC(Cc2ccccc2)CC1` [Example B4] has an EC50 of 0.149 µM. `Cn1c(C(=O)N2CCC(Cc3ccccc3)CC2)c(S(=O)(=O)c2ccc(Cl)cc2)c2ccccc21` [Example B5, (4-Benzylpiperidin-1-yl)(3-(4-chlorophenylsulfonyl)-1-methyl-1H-indol-2-yl)methanone] was tested, and the EC50 was 0.169 µM. With `O=C(c1[nH]c2ccccc2c1S(=O)(=O)CCc1ccccc1)N1CCC(Cc2ccccc2)CC1` [Example B11, (4-benzylpiperidin-1-yl)(3-(phenethylsulfonyl)-1H-indol-2-yl)methanone] the EC50 was 0.042 µM. `O=C(c1[nH]c2ccccc2c1Sc1ccccc1)N1CCC(Cc2ccccc2)CC1` [Example C1, (4-Benzylpiperidin-1-yl)(3-(phenylthio)-1H-indol-2-yl)methanone] showed an EC50 of 0.454 µM. In the case of `O=C(c1[nH]c2ccccc2c1Sc1ccc(Cl)cc1)N1CCC(Cc2ccccc2)CC1` [Example C2, (4-benzylpiperidin-1-yl)(3-(4-chlorophenylthio)-1H-indol-2-yl)methanone], the EC50 is reported as 0.18 µM.
